Assays:
[1] = system: Leukotrienes (biosynthesis); assay: Inhibition of leukotriene biosynthesis in vivo after oral administration, rat peritoneal anaphylaxis model; details: 1 h, gavage one hour prior to antigen challenge, read-out: Percent Inhibition of Leukotrienes; for inhibition in vivo at 100 µmol/kg: Oral Dose at 100 μmol/kg; for inhibition in vivo at 30 µmol/kg: Oral Dose at 30 μmol/kg; for inhibition in vivo at 200 µmol/kg: Oral Dose at 200 μmol/kg
Description: Inhibition of the biosynthesis of leuktrienes in vivo after oral administration of compound was determined using a rat peritoneal anaphylaxis model in a similar manner as that described by Young and coworkers (Young, P. R.; Dyer, R. D.; Carter, G. W. Fed. Proc., Fed. Am. Soc. Exp. Biol. 1985, 44, 1185). In this model rats were injected intraperitoneally (ip) with rabbit antibody to bovine serum albumin (BSA) and three hours later injected ip with BSA to induce an antgen-antibody response. Rats were sacrificed 15 minutes after this challenge and the peritoneal fluids were collected and analyzed for leukotriene levels. Test compounds were administered by gavage one hour prior to the antigen challenge. Percent inhibition values were determined by comparing the treatment group to the mean of the control group.

[2] = biological target: T1, 5-Lipoxygenase from RBL-1 20,000xg Supernatant (Rattus norvegicus, UniProt P12527); assay: 5-lipoxygenase inhibitory activity, 20,000 xg supernatant from homogenized RBL-1 cells; format: biochemical; details: radiolabeled arachidonic acid, triplicate
T1 construct: 20,000 xg supernatant from 1.5 million homogenized RBL-1 cells; endogenous in cells; host or cells: RBL-1 cells (20,000 xg supernatant of homogenate)
T1 sequence (P12527 1-673): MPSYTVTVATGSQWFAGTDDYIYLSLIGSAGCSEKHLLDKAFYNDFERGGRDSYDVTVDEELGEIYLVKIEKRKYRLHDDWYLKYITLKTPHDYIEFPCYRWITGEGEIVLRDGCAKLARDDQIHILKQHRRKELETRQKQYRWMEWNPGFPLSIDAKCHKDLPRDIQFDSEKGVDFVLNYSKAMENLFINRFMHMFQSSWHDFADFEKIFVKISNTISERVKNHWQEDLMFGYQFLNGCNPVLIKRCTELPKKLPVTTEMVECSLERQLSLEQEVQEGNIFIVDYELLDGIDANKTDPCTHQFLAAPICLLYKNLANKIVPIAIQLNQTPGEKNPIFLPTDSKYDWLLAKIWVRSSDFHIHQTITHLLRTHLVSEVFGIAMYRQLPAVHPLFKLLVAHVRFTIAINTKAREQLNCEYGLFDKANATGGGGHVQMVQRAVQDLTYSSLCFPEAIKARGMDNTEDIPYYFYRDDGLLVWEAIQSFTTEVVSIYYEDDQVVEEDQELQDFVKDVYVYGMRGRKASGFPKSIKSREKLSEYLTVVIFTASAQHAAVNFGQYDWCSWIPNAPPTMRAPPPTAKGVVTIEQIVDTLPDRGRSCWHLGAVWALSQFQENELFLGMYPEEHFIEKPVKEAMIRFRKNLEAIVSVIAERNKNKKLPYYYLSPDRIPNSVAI
Description: Assays to determine 5-lipoxygenase inhibitory activity of representative compounds of the present invention were performed in […] incubations containing the 20,000 xg supernatant from 1.5 million homogenized RBL-1 cells and various concentrations of the test compound. Reactions were initiated by addition of radiolabeled arachidonic acid and terminated by acidification and ether extraction. Reaction products were separated from nonconverted substrate by thin layer chromatography and measured by liquid scintillation spectroscopy. All incubations are performed in triplicate. Inhibition of 5-lipoxygenase activity was calculated as the ratio of the amount of product formed in the presence and absence of inhibitor. […] (Dyer, R. D.; Haviv, F.; Hanel, A. M.; Bornemier, D. A.; Carter, G. W. Fed. Proc., Fed. Am. Soc. Exp. Biol. 1984, 43, 1462A).

SMILES | IC50 [2] [nM] | inhibition in vivo at 100 µmol/kg [1] [%] | inhibition in vivo at 30 µmol/kg [1] [%] | inhibition in vivo at 200 µmol/kg [1] [%]
Cc1ccc(Oc2cccc(C#CCN(O)C(N)=O)c2)cc1 [Example 36, N-Hydroxy-N-[3-[3-(4-methylphenoxy)phenyl]-2-propynyl]urea] | 600 | 99 |  | 
NC(=O)N(O)CC#Cc1cccc(Oc2ccccc2)c1 [Example 33, N-Hydroxy-N-[3-(3-phenoxyphenyl)-2-propynyl]urea] | 500 | 99 |  | 
CC(C#CCCCc1ccccc1)N(O)C(N)=O (centres unmarked) [Example 11, N-Hydroxy,N-(7-phenyl-3-heptyn-2-yl)urea] | 700 |  |  | 99
CC(C)c1ccc(C#CC(C)N(O)C(N)=O)cc1 (centres unmarked) [Example 22, N-Hydroxy-N-[4-[4-(1-methylethyl)phenyl]-3-butyn-2-yl]urea] | 400 | 86 |  | 
CC(C#CC1CCCCC1)N(O)C(N)=O (centres unmarked) [Example 8, N-Hydroxy-N-[4-cyclohexyl-3-butyn-2-yl]urea] | 1900 |  |  | 41
CC(C#CCSc1ccccc1)N(O)C(N)=O (centres unmarked) [Example 4, N-Hydroxy-N-(5phenylthio-3-pentyn-2-yl)urea] | 400 |  |  | 64
CNC(=O)N(O)C(C)C#Cc1ccc(Cl)cc1 (centres unmarked) [Example 20, N-Hydroxy-N-[4-(4-chlorophenyl)-3-butyn-2-yl]-N'-methylurea] | 1100 | 89 |  | 
CC(C#CCCc1ccccc1)N(O)C(N)=O (centres unmarked) [Example 26, N-Hydroxy-N-(6-phenyl-3-hexyn-2-yl)urea] | 900 | 78 |  | 
CCc1ccc(C#CC(C)N(O)C(=O)NC)cc1 (centres unmarked) [Example 25, N-Hydroxy-N-[4-(4-ethylphenyl)-3-butyn-2-yl]-N'-methylurea] | 400 | 69 |  | 
CC(C#Cc1ccc(F)cc1)N(O)C(N)=O (centres unmarked) [Example 21, N-Hydroxy-N-[4,(4-fluorophenyl)-3-butyn-2-yl]urea] | 2100 | 90 |  | 
CC(C#CCc1ccccc1)N(O)C(N)=O (centres unmarked) [Example 30, N-Hydroxy-N-(5-phenyl-3-pentyn-2-yl)urea] | 2100 | 95 |  | 
COc1ccc(Oc2cccc(C#CCN(O)C(N)=O)c2)cc1 [Example 39] | 600 | 96 |  | 

Now from value to molecule, other results behind:

IC50 [2] [nM] | SMILES | inhibition in vivo at 100 µmol/kg [1] [%] | inhibition in vivo at 30 µmol/kg [1] [%] | inhibition in vivo at 200 µmol/kg [1] [%]
900 | CC(C#Cc1cccc(Oc2ccccn2)c1)N(O)C(N)=O (centres unmarked) [Example 47, N-Hydroxy-N-[4-[3-(2-pyridinyloxy)phenyl]-3-butyn-2-yl]urea] | 99 |  | 
300 | Cc1ccc(Oc2ccc(C#CC(C)N(O)C(N)=O)o2)cc1 (centres unmarked) [Example 62, N-hydroxy-N-{4-[5-(4-methylphenoxy)-2-furyl]-3-butyn-2-yl}urea] |  | 65 | 
600 | CCC(C#Cc1cccc(Oc2ccccn2)c1)N(O)C(N)=O (centres unmarked) [Example 64, N-Hydroxy-N-[5-[3-(2-pyridinyloxy)phenyl]-4-pentyn-3-yl]urea] |  | 78 | 
500 | CC(C#Cc1cccc(Oc2ccc(Cl)cc2)c1)N(O)C(N)=O (centres unmarked) [Example 42, N-Hydroxy-N-[4-[3-(4-chlorophenoxy)phenyl]-3-butyn-2-yl]urea] | 66 |  | 
500 | CC(C#Cc1cccc(Oc2nccs2)c1)N(O)C(N)=O (centres unmarked) [Example 66, N-Hydroxy-N-[4-[3-(2-thiazolyloxy)phenyl]-3-butyn-2-yl]urea] |  | 40 | 
200 | CC(C#Cc1ccc(Sc2ccccc2)o1)N(O)C(N)=O (centres unmarked) [Example 59, N-hydroxy-N-[4-(5-thiophenoxy-2-furyl)-3-butyn-2-yl]urea] |  | 62 | 
200 | CC(C#Cc1ccc(Oc2ccc(F)cc2)o1)N(O)C(N)=O (centres unmarked) [Example 57, N-hydroxy-N-{4-[5-(4-fluorophenoxy)-2-furyl]-3-butyn-2-yl}urea] |  | 83 | 
1200 | CC(C#Cc1cccc(Oc2ccncc2)c1)N(O)C(N)=O (centres unmarked) [Example 46, N-Hydroxy-N-[4-[3-(4-pyridinyloxy)phenyl]-3-butyn-2-yl]urea] | 98 |  | 
300 | Cc1cccc(Oc2cccc(C#CC(C)N(O)C(N)=O)c2)n1 (centres unmarked) [Example 67, N-Hydroxy-N-[4-[3-(6-methylpyridin-2-yloxy)phenyl]-3-butyn-2-yl]urea] |  | 56 | 
400 | NC(=O)N(O)CC#Cc1cccc(Oc2ccc(F)cc2)c1 [Example 44, N-Hydroxy-N-[3-[3-(4-fluorophenoxy)phenyl]-2-propynyl]urea] | 99 |  | 
